Series [1] in a line: Solubility in PBS buffer by OECD flask method with HPLC quantification. It counts as physicochemical. As to conditions: 25 °C, pH 7.4, aqueous buffer, thermodynamic from solid, pH=7.4, flask method, 25 °C, 72 h, mean ±SD, read-out: Solubility.
The subject of series [2] is T‐47D breast cancer cell line. Nature of the series: WST-8 cell viability assay. As to conditions: Homo sapiens, T47D, 120 h, read-out: IC50 T‐47D. Background: Tetrazolium assays rely on reduction of a dye to a coloured formazan, in cell work by metabolically active cells.
Series [3] deals with acetylated α‐tubulin (HDAC6 activity) in MCF‐7 cells. Description: Western blot target engagement in MCF-7 cells: acetylated α-tubulin. It is filed as cell-based, human. As to conditions: MCF-7 cell lysates after 24-hour treatment. In general terms: A western blot detects proteins with antibodies after separation by electrophoresis.
The target of series [4] is T1, HDAC1 (Homo sapiens, UniProt Q13547). Description: Binding kinetics via the Progression Method. It counts as biochemical. As to conditions: relationship between kobs and [I]; triplicates.
T1 sequence (Q13547 whole entry): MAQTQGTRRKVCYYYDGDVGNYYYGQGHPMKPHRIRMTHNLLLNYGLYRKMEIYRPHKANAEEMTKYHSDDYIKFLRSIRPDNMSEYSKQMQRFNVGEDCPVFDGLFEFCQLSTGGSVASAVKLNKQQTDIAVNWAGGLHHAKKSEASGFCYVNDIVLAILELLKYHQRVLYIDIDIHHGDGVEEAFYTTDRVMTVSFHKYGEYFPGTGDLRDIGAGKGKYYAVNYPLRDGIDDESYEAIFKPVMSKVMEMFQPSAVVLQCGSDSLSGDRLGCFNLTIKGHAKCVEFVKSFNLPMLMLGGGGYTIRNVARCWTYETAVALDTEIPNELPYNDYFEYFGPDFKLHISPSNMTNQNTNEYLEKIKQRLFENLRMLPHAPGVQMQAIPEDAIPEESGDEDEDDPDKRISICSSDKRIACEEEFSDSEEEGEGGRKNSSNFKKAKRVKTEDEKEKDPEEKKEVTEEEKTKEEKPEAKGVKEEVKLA
Protocol: (§1) To determine the binding mechanism at the respective HDAC isoform, a series of progression curves were generated, using fixed concentrations of enzyme, substrate, and different inhibitor concentrations. The in situ AMC release was monitored continuously by fluorescence readings recorded every 30 s for 60 or 90 min at 37 °C. The data of each progression curve were fitted to the appropriate equation (Prism 9.1.0 for MacOS). For inhibitors showing slow‐binding Mechanism I&II (Figure 5) time‐dependent product formation follows Eq. 1: (Eq. 1) P=vsst+vin-vss/kobs1-e^-kobst
(§2) where [P] is the amount of generated AMC, which directly correlates with the amount of deacetylated substrate over time [t]. V in and v ss are the initial and final steady‐state velocities of product formation and k obs is the apparat first‐order rate constant for the conversion from the initial velocity to the steady‐state velocity. It characterizes the formation of an enzyme–inhibitor equilibrium.
Fast‐on/fast‐off inhibitors. […] In this case Eq. 1 simplifies as follows: (Eq. 2) P=vsst
Therefore, the deacetylation rate in absence (v 0) and presence (v i) of the inhibitor is constant over time. […] [I] and [S] are the inhibitor and substrate concentrations, respectively and K m is the Michaelis‐Menten constant.
Slow‐binding inhibitors. The slow‐binding Mechanisms I & II are distinguished by their respective relationships between k obs and the inhibitor concentration. For the single‐step slow‐binding Mechanism I the relationship between inhibitor concentration and k obs is linear. The association and dissociation rate constants (k 1 & k −1, see Figure 5) can be obtained by fitting k obs as a function of [I] to Eq. 4. (Eq. 4) kobs=k-1+k11+S/KmI
The secondary association and dissociation rate constants k 2 & k −2 (see Figure 5) as well as the equilibrium dissociation constant K i,1 of the initial inhibitor‐enzyme encounter complex [EI] can be obtained by fitting k obs as a function of [I] (Eq. 5. (Eq. 5) kobs=k-2+k2/I+Ki,11+S/KmI
Determination of binding kinetics via the Progression Method.[14] HDAC1 and HDAC3
deacetylase activities were evaluated at varying inhibitor concentrations. Appropriate inhibitor
concentrations were chosen based on the previously determined IC50 values. To ensure substrate
excess during the experiment, the substrate concentration was set to five times Km. Km was
determined using a series of substrate concentrations.
For the progression curves, the
respective enzyme was incubated with the fluorogenic substrate and inhibitor in assay buffer
(§3) 90 minutes at 37°C. The relationship between AMC concentration and relative fluorescence units
(RFU) was determined and the measured RFU were transformed into the respective AMC
concentration in µM. […]
The target of series [5] is T1, HDAC1. Nature of the series: In vitro HDAC inhibition preincubation assay (ZMAL substrate).
In a further series the test system is MCF‐7 cells. Nature of the series: Modified wound healing (migration) assay. It is filed as cell-based, human. As to conditions: MCF-7, 10 μM, followed over 97 h, compared to DMSO control.
For series [6], the target named is T2, HDAC2 (Homo sapiens, UniProt Q92769). Nature of the series: In vitro HDAC inhibition preincubation assay (ZMAL substrate).
T2 sequence (Q92769 whole entry): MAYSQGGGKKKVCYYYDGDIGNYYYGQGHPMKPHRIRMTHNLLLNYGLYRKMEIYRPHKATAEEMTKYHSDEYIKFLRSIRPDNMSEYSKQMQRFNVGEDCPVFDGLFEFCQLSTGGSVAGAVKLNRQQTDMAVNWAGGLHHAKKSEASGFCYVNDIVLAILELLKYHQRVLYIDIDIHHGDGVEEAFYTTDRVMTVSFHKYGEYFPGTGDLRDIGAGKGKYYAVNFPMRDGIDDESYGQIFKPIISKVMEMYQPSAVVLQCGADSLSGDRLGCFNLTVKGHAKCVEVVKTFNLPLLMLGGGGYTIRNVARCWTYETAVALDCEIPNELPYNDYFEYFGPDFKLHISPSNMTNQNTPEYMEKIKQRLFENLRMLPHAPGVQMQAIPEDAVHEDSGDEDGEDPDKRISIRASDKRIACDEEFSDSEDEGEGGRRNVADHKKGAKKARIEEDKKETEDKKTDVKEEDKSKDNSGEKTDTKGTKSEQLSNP
Series [7] deals with BT‐474 breast cancer cell line. Description: WST-8 cell viability assay. Particulars: Homo sapiens, BT-474, 120 h, read-out: IC50 BT‐474.
A further series addresses HDAC3/NcoR2 (Homo sapiens, UniProt O15379). Description: In vitro HDAC inhibition preincubation assay (ZMAL substrate).
Another series deals with T3, human recombinant HDAC6 (Homo sapiens, UniProt Q9UBN7).
T3 sequence (Q9UBN7 1-1215): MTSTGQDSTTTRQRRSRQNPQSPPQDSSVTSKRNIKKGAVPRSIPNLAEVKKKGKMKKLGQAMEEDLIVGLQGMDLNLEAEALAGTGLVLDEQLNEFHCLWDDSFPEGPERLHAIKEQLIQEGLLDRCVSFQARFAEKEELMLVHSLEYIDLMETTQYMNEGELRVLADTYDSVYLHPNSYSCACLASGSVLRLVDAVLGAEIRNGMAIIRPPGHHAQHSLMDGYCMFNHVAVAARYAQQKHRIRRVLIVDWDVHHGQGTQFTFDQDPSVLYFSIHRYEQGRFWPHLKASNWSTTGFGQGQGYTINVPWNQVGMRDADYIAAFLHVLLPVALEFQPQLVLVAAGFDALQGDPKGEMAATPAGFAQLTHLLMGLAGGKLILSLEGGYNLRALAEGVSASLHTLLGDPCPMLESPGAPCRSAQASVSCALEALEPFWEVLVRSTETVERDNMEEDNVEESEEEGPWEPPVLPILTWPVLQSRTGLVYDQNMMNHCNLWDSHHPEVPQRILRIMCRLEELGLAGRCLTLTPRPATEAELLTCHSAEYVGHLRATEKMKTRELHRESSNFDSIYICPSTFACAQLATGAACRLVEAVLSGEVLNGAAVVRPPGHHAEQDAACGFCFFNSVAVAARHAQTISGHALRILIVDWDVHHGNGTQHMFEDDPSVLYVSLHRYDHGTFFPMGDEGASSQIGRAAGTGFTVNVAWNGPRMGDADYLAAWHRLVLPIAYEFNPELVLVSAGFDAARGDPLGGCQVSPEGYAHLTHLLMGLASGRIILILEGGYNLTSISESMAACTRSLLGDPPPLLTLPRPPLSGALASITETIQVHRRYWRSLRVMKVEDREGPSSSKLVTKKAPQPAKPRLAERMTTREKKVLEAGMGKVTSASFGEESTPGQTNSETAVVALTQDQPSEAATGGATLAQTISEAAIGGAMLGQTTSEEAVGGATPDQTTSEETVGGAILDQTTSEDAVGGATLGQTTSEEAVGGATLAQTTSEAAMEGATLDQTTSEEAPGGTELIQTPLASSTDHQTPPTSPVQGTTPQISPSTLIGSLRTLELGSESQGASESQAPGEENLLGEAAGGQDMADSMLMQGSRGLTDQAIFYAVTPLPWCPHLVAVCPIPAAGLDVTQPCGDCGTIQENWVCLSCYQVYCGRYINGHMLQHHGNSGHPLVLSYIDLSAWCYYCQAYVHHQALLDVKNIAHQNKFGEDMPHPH
The series is described as above.

In series [8] the target is T2, HDAC2. Description: IC50-shift experiments (varied preincubation time). It is filed as biochemical. Particulars: triplicates. On the set-up: purchased BPS Bioscience 50052.
Protocol: (§4) into OptiPlate-96 black micro-plates (PerkinElmer).
(§5) Afterwards, the fluorogenic substrate ZMAL
The total assay volume (50 µL,
(§6) max. […] Subsequently, 50 µL trypsin solution (0.4
(§7) enzymes and the respective inhibitor dilutions were preincubated at 20 °C for 5 to 120 minutes.
(§8) Afterwards, the assay protocol was continued as stated above. Compounds were tested in
(§9) triplicates and the assay was rerun if necessary. The respective IC50 values and P95 confidence
(§10) intervals were determined using Prism 9 for MacOS.
In series [9] the test system is MCF‐7 breast cancer cell line. Description: WST-8 cell viability assay. Particulars: Homo sapiens, MCF7, 120 h, read-out: IC50 MCF‐7.
The nature of series [10]: LogD7.4 by OECD slow-stirring method with HPLC quantification. Particulars: 1-octanol/PBS buffer (mutually saturated), pH 7.4, LogD7.4, slow-stirring method, 1-octanol/PBS buffer pH 7.4, 25 °C, 48 h.
In series [11] the target is T1, HDAC1. Description: 100-fold Jump-Dilution experiments. It is filed as biochemical. As to conditions: diluted inhibitor concentration as indicated per compound, vehicle [DMSO 1 %]=111.9.
Series [12] addresses T1, HDAC1. Description: IC50-shift experiments (varied preincubation time). It is filed as biochemical. As to conditions: triplicates.
In series [13] the target is T4, HDAC3 (Homo sapiens, UniProt O15379). Description: 100-fold Jump-Dilution experiments. It is filed as biochemical. Particulars: diluted inhibitor concentration as indicated per compound, vehicle [DMSO 1%] = 56.7.
T4 sequence (O15379 whole entry): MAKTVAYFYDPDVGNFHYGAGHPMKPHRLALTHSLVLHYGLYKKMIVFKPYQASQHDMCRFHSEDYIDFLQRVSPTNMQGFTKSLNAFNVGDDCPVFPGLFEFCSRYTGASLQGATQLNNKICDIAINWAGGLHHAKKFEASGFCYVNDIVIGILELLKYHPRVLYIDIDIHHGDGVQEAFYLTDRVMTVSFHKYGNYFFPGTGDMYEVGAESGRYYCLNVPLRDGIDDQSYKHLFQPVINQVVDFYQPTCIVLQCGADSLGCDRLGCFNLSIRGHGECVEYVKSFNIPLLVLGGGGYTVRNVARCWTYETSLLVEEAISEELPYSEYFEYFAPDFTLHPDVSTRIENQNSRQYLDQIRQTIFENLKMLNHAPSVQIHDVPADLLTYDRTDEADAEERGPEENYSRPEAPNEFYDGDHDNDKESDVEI
T4 sequence (Q9Y618 395-489 partner limits assumed): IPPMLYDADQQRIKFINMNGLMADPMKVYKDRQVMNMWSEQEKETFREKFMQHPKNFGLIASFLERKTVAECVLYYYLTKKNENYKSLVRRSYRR
The nature of a further series: physchem. As to conditions: 1-octanol/PBS buffer (mutually saturated), pH 7.4.
Series [14] has as its target T4, HDAC3. Nature of the series: IC50-shift experiments (varied preincubation time). It counts as biochemical. As to conditions: triplicates.
Protocol: as §4, §5
The total assay volume (50 µL,
as §6, §7, §8, §9, §10
Series [15] has as its target T4, HDAC3. Nature of the series: Binding kinetics via the Progression Method. Particulars: relationship between kobs and [I]; triplicates. It is filed as biochemical.
Protocol: as §1, §2
Fast‐on/fast‐off inhibitors. […]
deacetylase activities were evaluated at varying inhibitor concentrations. […]
concentrations were chosen based on the previously determined IC50 values. […]
determined using a series of substrate concentrations. […]
as §3
(RFU) was determined and the measured RFU were transformed into the respective AMC […]
The mark [16] stands for this setting: HDAC1 IC50, preincubation 5 min, preincubation time 5 min at 20°C.
Where [17] appears, read: HDAC1 IC50, preincubation 30 min, preincubation time 30 min at 20°C.
Setting [18] is: HDAC1 IC50, preincubation 60 min, preincubation time 60 min at 20°C.
The mark [19] stands for this setting: HDAC1 IC50, preincubation 120 min, preincubation time 120 min at 20°C.

≈ marks a conversion by molar mass, not a printed value. Some results are limits rather than exact numbers.

Sequence of HDAC3/NcoR2 (O15379 whole entry): as the sequence (O15379 whole entry) above
Sequence of HDAC3/NcoR2 (Q9Y618 395-489 partner limits assumed): as the sequence (Q9Y618 395-489 partner limits assumed) above

For `CC(=O)Nc1ccc(C(=O)Nc2cc(-c3ccncc3)ccc2N)cc1` [6 d], in series [1], the solubility at 72 h was 16.5 ± 0.3 µg/mL (≈ 47.6 µM). Moreover, the IC50 is 1010 ± 190 nM in series [2]; 13.2 ± 1 nM on HDAC1 [5]; 77.2 ± 9.2 nM at HDAC2 [6]; above 8000 nM in series [7]; 8910 nM at HDAC3/NcoR2; above 10000 nM on human recombinant HDAC6. Moreover, the IC50 turned out to be 98.2 nM on HDAC2 [8] (HDAC2 IC50, preincubation 5 min, preincubation time 5 min at 20°C); 89 nM on HDAC2 [8] (HDAC2 IC50, preincubation 15 min, preincubation time 15 min at 20°C); 83 nM at HDAC2 [8] (HDAC2 IC50, preincubation 30 min, preincubation time 30 min at 20°C); 77.4 nM at HDAC2 [8] (HDAC2 IC50, preincubation 60 min, preincubation time 60 min at 20°C); 63.2 nM on HDAC2 [8] (HDAC2 IC50, preincubation 120 min, preincubation time 120 min at 20°C); 11100 ± 3850 nM in [9]. The 50% inhibitory concentration (IC50) at HDAC1 [12] (setting [16]) stood at 54.1 nM; on HDAC1 [12] (HDAC1 IC50, preincubation 15 min, preincubation time 15 min at 20°C), 53.5 nM; at HDAC1 [12] (setting [17]) it was 44.5 nM; on HDAC1 [12] (setting [18]) it was 40.8 nM; at HDAC1 [12] (setting [19]), 25.4 nM. Also, in [3], the “acetylated α‐tubulin (western blot)” value is listed as “non‐detectable”. For the same compound, the “binding mechanism at HDAC1” value on HDAC1 [4] is “slow‐binding Mechanism II”. Moreover, the “selectivity for HDAC1 over HDAC3” value on HDAC1 [5] (ratio of IC50 values HDAC3/HDAC1) stood at 675 fold. In addition, the “effect on cell migration (wound closure)” value in the series on MCF‐7 cells was “attenuated cell migration significantly”. This compound also gave a pH-dependent lipophilicity (logD) at 48 h in [10] of 1.75. Moreover, on HDAC1 [11], the “Final slope of progression curve after 100-fold dilution (HDAC1)” value amounted to 39.4 RFU*min^−1.

Take `CN(C)c1ccc(C(=O)N(CC(=O)NCc2ccccc2)Cc2ccc(C(=O)Nc3ccccc3N)cc2)cc1` [VK‐1, reference compound]: the “binding mechanism at HDAC1” value at HDAC1 [4] is listed as “slow‐binding Mechanism II”. The “Final slope of progression curve after 100-fold dilution (HDAC3)” value on HDAC3 [13] was 2.51 RFU*min-1. The IC50 against HDAC1 [5] came out at 68.6 ± 10.4 nM; against HDAC2 [6], 128 ± 14.5 nM; at HDAC3/NcoR2 it was 310 ± 7.8 nM; at HDAC3 [14] (HDAC3 IC50, preincubation 5 min, preincubation time 5 min at 20°C), 794 nM; on HDAC3 [14] (HDAC3 IC50, preincubation 30 min, preincubation time 30 min at 20°C) it was 432 nM; on HDAC3 [14] (HDAC3 IC50, preincubation 60 min, preincubation time 60 min at 20°C), 299 nM. The IC50 was 171 nM on HDAC3 [14] (HDAC3 IC50, preincubation 120 min, preincubation time 120 min at 20°C); 93 nM at HDAC1 [12] (setting [16]); 57.4 nM at HDAC1 [12] (setting [17]); 48.3 nM on HDAC1 [12] (setting [18]); 35.6 nM on HDAC1 [12] (setting [19]). This compound showed a logD at 48 h in “physchem” of 3.19. In addition, at HDAC1 [11], the “Final slope of progression curve after 100-fold dilution (HDAC1)” value was found to be 39.2 RFU*min^−1. Further, the “binding mechanism at HDAC3” value on HDAC3 [15] is given as “slow-binding Mechanism II”.

For orientation: solubility means how much of the substance goes into solution per volume. The IC50 is the concentration needed to halve the response being measured. As a reminder, the logD is lipophilicity at a set pH, counting ionised and neutral species. A lower logD goes with a more hydrophilic compound.

The record behind these values is paper PMC9303312, “Balancing Histone Deacetylase (HDAC) Inhibition and Drug‐likeness: Biological and Physicochemical Evaluation of Class I Selective HDAC Inhibitors” (Chemmedchem, 2022).
